Where two headings read alike, the source gives them in different places.
Tests used:
[1] = molecular target: Human α2δ-1 subunit of Cav2.2 calcium channel (Homo sapiens (Human), UniProt P54289); experiment: Binding Assay to Human α2δ-1 Subunit of Cav2.2 Calcium Channel; conditions: human α2δ-1 enriched membranes, 15 nM [3H]-Gabapentin, read-out: Ki(nM) alpha2delta Hum
Experimental: Binding Assay to Human α2δ-1 Subunit of Cav2.2 Calcium Channel.
(§1) NSB (non specific binding) was measured by adding 10 μM pregabalin. The binding of the test compound was measured in five different concentrations. After 60 min incubation at 27° C., binding reaction was terminated by filtering through Multiscreen GF/C (Millipore) presoaked in 0.5% polyethyleneimine in Vacuum Manifold Station, followed by 3 washes with ice-cold filtration buffer containing 50 mM Tris-HCl, pH 7.4.
(§2) Filter plates were dried at 60° C. for 1 hour and 30 μl of scintillation cocktail were added to each well before radioactivity reading.

[2] = molecular target: Human norepinephrine transporter (NET) (Homo sapiens (Human), UniProt P23975); experiment: Binding Assay to Human Norepinephrine Transporter (NET); conditions: Table 2, dual compounds; human NET enriched membranes, 5 nM [3H]-Nisoxetin; read-out: Ki(nM) NET Hum
Experimental: Binding Assay to Human Norepinephrine Transporter (NET).
Human norepinephrine transporter (NET) enriched membranes (5 μg) were incubated with 5 nM of radiolabeled [3H]-Nisoxetin in assay buffer containing 50 mM Tris-HCl, 120 mM NaCl, 5 mM KCl, pH 7.4.
as §1, with “desipramine.” for “pregabalin.”, “4°” for “27°”, “Tris-HCl, 0.9% NaCl,” for “Tris-HCl,”
as §2

Chain of Human norepinephrine transporter (NET) (P23975 whole entry): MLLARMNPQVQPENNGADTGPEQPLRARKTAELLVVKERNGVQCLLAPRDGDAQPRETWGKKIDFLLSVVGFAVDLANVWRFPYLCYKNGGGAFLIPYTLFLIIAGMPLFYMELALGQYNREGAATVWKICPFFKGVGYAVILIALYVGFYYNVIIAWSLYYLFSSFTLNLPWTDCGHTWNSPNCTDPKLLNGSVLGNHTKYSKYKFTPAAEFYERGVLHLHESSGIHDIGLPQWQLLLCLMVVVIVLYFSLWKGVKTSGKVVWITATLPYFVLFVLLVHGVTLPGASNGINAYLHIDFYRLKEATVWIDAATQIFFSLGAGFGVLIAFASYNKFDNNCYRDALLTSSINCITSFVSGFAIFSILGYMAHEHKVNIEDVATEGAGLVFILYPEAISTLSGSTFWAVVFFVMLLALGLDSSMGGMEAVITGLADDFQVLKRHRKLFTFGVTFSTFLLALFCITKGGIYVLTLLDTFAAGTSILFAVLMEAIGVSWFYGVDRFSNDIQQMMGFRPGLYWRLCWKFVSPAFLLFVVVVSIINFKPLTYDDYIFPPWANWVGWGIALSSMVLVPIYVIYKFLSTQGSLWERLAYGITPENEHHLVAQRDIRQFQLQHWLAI
Chain of Human α2δ-1 subunit of Cav2.2 calcium channel (P54289 25-1103): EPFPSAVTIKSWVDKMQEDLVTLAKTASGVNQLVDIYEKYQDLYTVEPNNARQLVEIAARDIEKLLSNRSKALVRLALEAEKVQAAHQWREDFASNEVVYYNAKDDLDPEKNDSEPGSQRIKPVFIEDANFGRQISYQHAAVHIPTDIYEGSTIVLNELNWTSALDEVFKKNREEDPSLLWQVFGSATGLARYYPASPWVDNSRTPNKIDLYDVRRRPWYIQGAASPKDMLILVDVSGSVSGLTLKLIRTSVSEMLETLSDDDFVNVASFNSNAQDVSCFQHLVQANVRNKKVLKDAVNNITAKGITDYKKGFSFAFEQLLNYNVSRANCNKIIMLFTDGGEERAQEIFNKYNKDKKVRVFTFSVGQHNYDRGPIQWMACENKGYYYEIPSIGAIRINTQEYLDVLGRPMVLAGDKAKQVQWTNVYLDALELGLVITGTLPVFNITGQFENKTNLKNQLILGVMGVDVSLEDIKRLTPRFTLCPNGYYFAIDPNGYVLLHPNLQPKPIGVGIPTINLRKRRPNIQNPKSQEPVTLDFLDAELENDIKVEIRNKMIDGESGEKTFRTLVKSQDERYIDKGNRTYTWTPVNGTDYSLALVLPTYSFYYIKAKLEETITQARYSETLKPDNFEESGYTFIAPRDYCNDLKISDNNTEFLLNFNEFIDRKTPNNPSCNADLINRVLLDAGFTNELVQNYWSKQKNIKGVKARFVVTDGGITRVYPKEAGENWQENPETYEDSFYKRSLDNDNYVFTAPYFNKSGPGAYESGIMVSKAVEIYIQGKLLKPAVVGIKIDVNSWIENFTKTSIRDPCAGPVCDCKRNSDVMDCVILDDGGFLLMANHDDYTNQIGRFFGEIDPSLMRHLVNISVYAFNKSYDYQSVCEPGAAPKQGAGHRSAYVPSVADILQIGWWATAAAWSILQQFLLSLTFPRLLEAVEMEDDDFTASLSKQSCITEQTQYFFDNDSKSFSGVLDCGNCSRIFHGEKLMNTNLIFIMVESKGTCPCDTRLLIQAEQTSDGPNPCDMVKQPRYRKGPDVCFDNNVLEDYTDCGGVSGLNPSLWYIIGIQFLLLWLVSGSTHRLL

Ki ([1]; Table 1) [nM] | Ki ([1]; Table 2, dual compounds) [nM] | Ki [2] [nM] | SMILES
< 100 | < 100 | < 100 | CNCC[C@H](Oc1ccc(CN2CCN(C)c3ncccc3C2=O)c(Cl)c1)c1ccccc1 [Example 141, (S)-(2-chloro-4-(3-(methylamino)-1-phenylpropoxy)benzyl)-1-methyl-1,2,3,4-telrahydro-5H-pyrido[2,3-e][1,4]diazepin-5-one]
< 100 | < 100 | < 100 | CNCC[C@H](Oc1ccc(CN2CCN(C)c3nc(N)ccc3C2=O)c(Cl)c1)c1ccccc1 [Example 138, (S)-8-amino-4-(2-chloro-4-(3-(methylamino)-1-phenylpropoxy)benzyl)-1-methyl-1,2,3,4-tetrahydro-5H-pyrido[2,3-e][1,4]diazepin-5-one]
500 to 3000 | 500 to 3000 | < 100 | CNCCC(Oc1ccc(CN2CCN(C)c3nc(C)ccc3C2=O)cc1)c1ccccc1 (centres unmarked) [Example 110, 1,8-Dimethyl-4-(4-(3-(methylamino)-1-phenylpropoxy)benzyl)-1,2,3,4-tetrahydro-5H-pyrido[2,3-e][1,4]diazepin-5-one]
500 to 3000 | 500 to 3000 | 100 to 500 | CNCCC(OCc1cccc(N2CCN(C)CCC2=O)c1)c1cccs1 (centres unmarked) [Example 84, 1-Methyl-4-(3-((3-(methylamino)-1-(thiophen-2-yl)propoxy)methyl)phenyl)-1,4-diazepan-5-one]
< 100 | < 100 | < 100 | CNCC[C@H](Oc1ccc(CN2CCN(C)c3nc(N)ccc3C2=O)c(F)c1)c1cccc(F)c1 [Example 153, (S)-8-amino-4-(2-fluoro-4-(1-(3-fluorophenyl)-3-(methylamino)propoxy)benzyl)-1-methyl-1,2,3,4-tetrahydro-5H-pyrido[2,3-e][1,4]diazepin-5-one]
500 to 3000 | 500 to 3000 | 100 to 500 | CNCCC(Oc1cccc(C(=O)N2CCCN(C)CC2)c1)c1ccccc1 (centres unmarked) [Example 3, (4-Methyl-1,4-diazepan-1-yl)(3-(3-(methylamino)-1-phenylpropoxy)phenyl)methanone]
100 to 500 | 100 to 500 | 100 to 500 | CNCC[C@H](Oc1ccc(CN2CCN(C)c3nc(C(F)(F)F)ccc3C2=O)cc1)c1cccs1 [Example 93, (S)-1-methyl-4-(4-(3-(methylamino)-1-(thiophen-2-yl)propoxy)benzyl)-8-(trifluoromethyl)-1,2,3,4-tetrahydro-5H-pyrido[2,3-e][1,4]diazepin-5-one]
< 100 | < 100 | < 100 | CNCC[C@H](Oc1ccc(CN2CCN(C)c3ncccc3C2=O)c(F)c1)c1ccccc1F [Example 152, (S)-4-(2-fluoro-4-(1-(2-fluorophenyl)-3-(methylamino)propoxy)benzyl)-1-methyl-1,2,3,4-tetrahydro-5H-pyrido[2,3-e][1,4]diazepin-5-one]
500 to 3000 | 500 to 3000 | 500 to 1000 | CCNc1ccc2c(n1)N(C)CCN(c1cccc(COC(CCNC)c3ccccc3)c1)C2=O (centres unmarked) [Example 29, 8-(Ethylamino)-1-methyl-4-(3-((3-(methylamino)-1-phenylpropoxy)methyl)phenyl)-1,2,3,4-tetrahydro-5H-pyrido[2,3-e][1,4]diazepin-5-one]
500 to 3000 | 500 to 3000 | 100 to 500 | CNCC[C@H](Oc1cccc(N2CCN(C(C)C)CCC2=O)c1)c1cccs1 [Example 66, (S)-1-isopropyl-4-(3-(3-(methylamino)-1-(thiophen-2-yl)propoxy)phenyl)-1,4-diazepan-5-one]
100 to 500 | 100 to 500 | < 100 | CCNc1ccc2c(n1)N(C)CCN(Cc1ccc(O[C@@H](CCNC)c3cccc(F)c3)cc1F)C2=O [Example 148, (S)-8-(ethylamino)-4-(2-fluoro-4-(1-(3-fluorophenyl)-3-(methylamino)propoxy)benzyl)-1-methyl-1,2,3,4-tetrahydro-5H-pyrido[2,3-e][1,4]diazepin-5-one]
< 100 | < 100 | 100 to 500 | CNCC[C@H](Oc1ccc(CN2CCN(C)c3ncccc3C2=O)c(F)c1)c1cccs1 [Example 108, (S)-4-(2-fluoro-4-(3-(methylamino)-1-(thiophen-2-yl)propoxy)benzyl)-1-methyl-1,2,3,4-tetrahydro-5H-pyrido[2,3-e)[1,4]diazepin-5-one]
100 to 500 | 100 to 500 | < 100 | CNCCC(Oc1ccc(CN2CCN(C)c3ncccc3C2=O)c(F)c1)c1ccccc1F (centres unmarked) [Example 129, 4-(2-Fluoro-4-(1-(2-fluorophenyl)-3-(methylamino)propoxy)benzyl)-1-methyl-1,2,3,4-tetrahydro-5H-pyrido[2,3-e][1,4]diazepin-5-one]
< 100 | < 100 | 100 to 500 | CNCC[C@H](Oc1ccc(CN2CCN(C)c3ncccc3C2=O)cc1)c1cccs1 [Example 90, (S)-1-methyl-4-(4-(3-(methylamino)-1-(thiophen-2-yl)propoxy)benzyl)-1,2,3,4-tetrahydro-5H-pyrido[2,3-e][1,4]diazepin-5-one]
500 to 3000 | 500 to 3000 | 100 to 500 | CNCCC(OCc1cccc(N2CCNCCC2=O)c1)c1ccccc1 (centres unmarked) [Example 37, 4-(3-((3-(Methylamino)-1-phenylpropoxy)methyl)phenyl)-1,4-diazepan-5-one]
< 100 | < 100 | < 100 | CNCC[C@H](Oc1ccc(CN2CCN(C)c3ncccc3C2=O)c(Cl)c1)c1cccc(F)c1 [Example 149, (S)-4-(2-chloro-4-(1-(3-fluorophenyl)-3-(methylamino)propoxy)benzyl)-1-methyl-1,2,3,4-tetrahydro-5H-pyrido[2,3-e][1,4]diazepin-5-one]
100 to 500 | 100 to 500 | 100 to 500 | CNCCC(Oc1cccc(N2CCN(C(C)C)CCC2=O)c1)c1ccsc1 (centres unmarked) [Example 75, 1-Isopropyl-4-(3-(3-(methylamino)-1-(thiophen-3-yl)propoxy)phenyl)-1,4-diazepan-5-one]
100 to 500 | 100 to 500 | < 100 | CNCC[C@H](Oc1cccc(N2CCN(C)c3nc(C)ccc3C2=O)c1)c1ccsc1 [Example 80, (S)-1,8-dimethyl-4-(3-(3-(methylamino)-1-(thiophen-3-yl)propoxy)phenyl)-1,2,3,4-tetrahydro-5H-pyrido[2,3-e][1,4]diazepin-5-one]
> 3000 | > 3000 | < 100 | CNCC[C@H](Oc1ccc(CN2CCN(C)c3nc(O)ccc3C2=O)c(F)c1)c1ccccc1 [Example 142, (S)-4-(2-fluoro-4-(3-(methylamino)-1-phenylpropoxy)benzyl)-8-hydroxy-1-methyl-1,2,3,4-tetrahydro-5H-pyrido[2,3-e][1,4]diazepin-5-one]
100 to 500 | 100 to 500 | < 100 | CNCCC(Oc1ccc(F)c(N2CCN(C)c3ncccc3C2=O)c1)c1cccc(F)c1 (centres unmarked) [Example 119, 4-(2-Fluoro-5-(1-(3-ftuorophenyl)-3-(methylamino)propoxy)phenyl)-1-methyl-1,2,3,4-tetrahydro-5H-pyrido[2,3-e][1,4]diazepin-5-one]
100 to 500 | 100 to 500 | 100 to 500 | CNCC[C@H](Oc1ccc(CN2CCCn3nccc3C2=O)cc1)c1cccs1 [Example 104, (S)-5-(4-(3-(methylamino)-1-(thiophen-2-yl)propoxy)benzyl)-5,6,7,8-tetrahydro-4H-pyrazolo[1,5-a][1,4]diazepin-4-one]
500 to 3000 |  |  | CNCC[C@@H](OCc1cccc(N2CCCN(C)CC2)c1)c1ccccc1 [Example 13, (R)-N-methyl-3-((3-(4-methyl-1,4-diazepan-1-yl)benzyl)oxy)-3-phenylpropan-1-amine]
> 3000 |  |  | CNCCC(Oc1cccc(N2CCN(C)c3cc(F)cnc3C2=O)c1)c1cccs1 (centres unmarked) [Example 74, 8-Fluoro-1-methyl-4-(3-(3-(methylamino)-1-(thiophen-2-yl)propoxy)phenyl)-1,2,3,4-tetrahydro-5H-pyrido[3,2-e][1,4]diazepin-5-one]
> 3000 |  |  | CCNc1ccc2c(n1)N(C)CCN(Cc1ccc(O[C@H](CCNC)c3cccc(F)c3)cc1F)C2=O [Example 147, (R)-8-(ethylamino)-4-(2-fluoro-4-(1-(3-fluorophenyl)-3-(methylamino)propoxy)benzyl)-1-methyl-1,2,3,4-tetrahydro-5H-pyrido[2,3-e][1,4]diazepin-5-one]
500 to 3000 |  |  | CNCCC(OCc1cccc(N2CCN(C)c3ccccc3C2=O)c1)c1cccc(F)c1 (centres unmarked) [Example 40, 4-(3-((1-(3-Fluorophenyl)-3-(methylamino)propoxy)methyl)phenyl)-1-methyl-1,2,3,4-tetrahydro-5H-benzo[e][1,4]diazepin-5-one]
500 to 3000 |  |  | CNCCC(Oc1cccc(C(=O)N2CCCN(C)CC2)c1)c1cccs1 (centres unmarked) [Example 2, (4-Methyl-1,4-diazepan-1-yl)(3-(3-(methylamino)-1-(thiophen-2-yl)propoxy)phenyl)methanone]

— US11401270B2, “Alcoxyamino derivatives for treating pain and pain related conditions” (ESTEVE PHARMACEUTICALS, S.A., priority 2017, dated 2022)
